Active and inactive are the calls of the source. No cut-off for these calls is given here.
Legend:
[1] = test system: Radical scavenging activity; test: Antioxidant activity assessed as DPPH radical scavenging activity after 10 mins; assay type: functional
[2] = Antioxidant activity assessed as ABTS radical scavenging activity after 12 hrs; assay type: functional
[3] = Antioxidant activity assessed as superoxide radical anion scavenging activity after 8 mins; assay type: functional
[4] = Protective effect against Fe2+/H2O2 radical-induced supercoiled DNA breakage at 1 mM

SMILES	EC50 [1]	EC50 [2]	EC50 [3]	Activity [4]	Activity [3]
C/C=C/c1cc(O)cc(=O)o1	> 100 µM	> 50 µM	–	–	inactive
Cc1c(C)c2c(c(C)c1O)CCC(C)(C(=O)O)O2 (stereo not drawn) [TROLOX]	22.1 µM	11.8 µM	–	–	inactive

Second part, led by results:

EC50 [1]	EC50 [2]	EC50 [3]	Activity [4]	SMILES	Activity [3]
19.3 µM	14.8 µM	21.9 µM	70%	C/C=C/c1cc2c(c(=O)o1)-c1c(O)c(O)c(OC)c(C(=O)O)c1CO2 [CYATHUSCAVIN A]	–
13.9 µM	9.84 µM	25.1 µM	90%	C/C=C/c1cc2c(c(=O)o1)-c1c(O)c(O)c(OC)c(C(=O)O)c1C(OC)O2 (stereo not drawn) [CYATHUSCAVIN B]	–
19.6 µM	7.08 µM	–	70%	C/C=C/c1cc2c(c(=O)o1)-c1c(O)c(O)c(OC)c(C(=O)O)c1C(O)O2 (stereo not drawn) [CYATHUSCAVIN C]	inactive
